Test results as given in ChEMBL document CHEMBL1201862, “PubChem BioAssay data set” (2004).
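The compound was tested at five concentrations on cells cultured in 96-well plates, with a 48-hour exposure period. GI50: concentration for 50% inhibition of growth.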 Activity calls are given as the source filed them. Rule as the data show it: active = GI50 up to about 1.1 µM and inactive = higher.

Assays:
Test in all cases: inhibition of tumour cell growth, NCI panel, 48 h
SF-295 = system: SF-295
HOP-92 = system: HOP-92
NCI-H23 = system: NCI-H23
SR = system: SR
NCI-H522 = system: NCI-H522
HOP-62 = system: HOP-62
HL-60 = system: HL-60
RPMI-8226 = system: RPMI-8226
NCI-H460 = system: NCI-H460
SF-268 = system: SF-268
IGROV-1 = system: IGROV-1
HCT-116 = system: HCT-116
SK-MEL-2 = system: SK-MEL-2
OVCAR-4 = system: OVCAR-4
UO-31 = system: UO-31
SK-MEL-5 = system: SK-MEL-5
LOX IMVI = system: LOX IMVI
PC-3 = system: PC-3
MDA-MB-435 = system: MDA-MB-435

Measured: GI50

O=C1c2ccccc2C(=O)c2[nH]c(Cc3ccc(F)cc3)nc21
inactive: SF-295 16.7 µM | HOP-92 19.9 µM | NCI-H23 > 10 µM | SR 21.6 µM | NCI-H522 14.5 µM | HOP-62 21.9 µM | HL-60 17.9 µM | RPMI-8226 22.8 µM | NCI-H460 15.2 µM | SF-268 21.8 µM | IGROV-1 12.5 µM | HCT-116 19.5 µM | SK-MEL-2 13.9 µM | OVCAR-4 14.8 µM | UO-31 29.6 µM

CCCCCCCC(=O)OCC1OC(n2cc(F)c(=O)[nH]c2=O)C(NC(=O)OCc2ccccc2)C(O)C1O (stereo unspecified)
inactive: SK-MEL-5 1.55 µM | SF-295 > 100 µM | HOP-92 23.8 µM | NCI-H23 > 100 µM | SR 31.8 µM | NCI-H522 26.2 µM | HOP-62 > 100 µM | HL-60 40.3 µM | RPMI-8226 26.4 µM | NCI-H460 > 100 µM | LOX IMVI 37.1 µM | SF-268 46.9 µM | IGROV-1 > 100 µM | HCT-116 > 100 µM | SK-MEL-2 20.4 µM | OVCAR-4 > 100 µM | UO-31 > 100 µM

CC(=O)Nc1c(C(=N)C#N)ncn1CCO
inactive: SK-MEL-5 > 100 µM | PC-3 > 100 µM | SF-295 > 100 µM | HOP-92 > 100 µM | NCI-H23 > 100 µM | NCI-H522 > 100 µM | HOP-62 > 100 µM | RPMI-8226 > 100 µM | NCI-H460 > 100 µM | LOX IMVI > 100 µM | SF-268 > 100 µM | MDA-MB-435 > 100 µM | IGROV-1 > 100 µM | HCT-116 > 100 µM | SK-MEL-2 > 100 µM | OVCAR-4 > 100 µM

C=C1CC(CC(=O)C(C)CC2CC(=C)C(=O)O2)OC1=O (stereo unspecified)
inactive: SK-MEL-5 33.3 µM | SF-295 > 100 µM | HOP-92 17.7 µM | NCI-H23 18.8 µM | SR 3.3 µM | HOP-62 > 100 µM | HL-60 14 µM | NCI-H460 32.1 µM | LOX IMVI 15.6 µM | SF-268 22.4 µM | IGROV-1 32.8 µM | HCT-116 12.1 µM | SK-MEL-2 9.35 µM | OVCAR-4 16.4 µM | UO-31 > 100 µM

CC(=O)OC1=C(CC(C)(C)C)C(=O)c2ccccc2C1=O
inactive: SK-MEL-5 15.9 µM | PC-3 29.1 µM | SF-295 22.7 µM | NCI-H23 15.6 µM | SR 20.5 µM | HOP-62 35.2 µM | HL-60 16 µM | RPMI-8226 17.1 µM | NCI-H460 25 µM | LOX IMVI 47.5 µM | SF-268 21.6 µM | MDA-MB-435 21.7 µM | IGROV-1 34.2 µM | HCT-116 25.8 µM | SK-MEL-2 31.8 µM | OVCAR-4 37.8 µM | UO-31 33.4 µM

COC(=O)C(C(=O)Cc1ccccc1[N+](=O)[O-])C(=O)OC
inactive: SK-MEL-5 > 100 µM | SF-295 42.2 µM | HOP-92 > 100 µM | NCI-H23 > 100 µM | SR 23.9 µM | NCI-H522 > 100 µM | HOP-62 > 100 µM | HL-60 54.5 µM | NCI-H460 > 100 µM | LOX IMVI > 100 µM | SF-268 > 100 µM | IGROV-1 > 100 µM | HCT-116 > 100 µM | SK-MEL-2 > 100 µM | OVCAR-4 > 100 µM | UO-31 > 100 µM

CC(C)(C)[C@H]1CO[C@]2(c3ccccc3)[C@@H]3C[C@@H]3C(=O)N12
inactive: SK-MEL-5 > 100 µM | SF-295 > 100 µM | HOP-92 > 100 µM | NCI-H23 > 100 µM | SR > 100 µM | NCI-H522 > 100 µM | HOP-62 > 100 µM | HL-60 > 100 µM | RPMI-8226 > 100 µM | NCI-H460 > 100 µM | LOX IMVI > 100 µM | SF-268 > 100 µM | IGROV-1 > 100 µM | SK-MEL-2 > 100 µM | OVCAR-4 > 100 µM | UO-31 > 100 µM

COC(=O)C1=CC2C(=O)OC1CC2C#N (stereo unspecified)
inactive: SK-MEL-5 > 100 µM | SF-295 > 100 µM | HOP-92 > 100 µM | NCI-H23 > 100 µM | SR > 100 µM | NCI-H522 > 100 µM | HOP-62 > 100 µM | HL-60 > 100 µM | RPMI-8226 > 100 µM | NCI-H460 > 100 µM | LOX IMVI > 100 µM | SF-268 > 100 µM | IGROV-1 > 100 µM | HCT-116 > 100 µM | OVCAR-4 > 100 µM | UO-31 > 100 µM

O=c1[nH]cnc2c(COCCO)c[nH]c12
inactive: SK-MEL-5 > 100 µM | SF-295 > 100 µM | HOP-92 > 100 µM | NCI-H23 > 100 µM | SR > 100 µM | NCI-H522 > 100 µM | HOP-62 > 100 µM | HL-60 > 100 µM | RPMI-8226 > 100 µM | NCI-H460 > 100 µM | LOX IMVI > 100 µM | SF-268 > 100 µM | IGROV-1 > 100 µM | SK-MEL-2 > 100 µM | OVCAR-4 > 100 µM | UO-31 > 100 µM

Cn1c(=O)oc2cc(Br)ccc21
inactive: SK-MEL-5 > 100 µM | PC-3 > 100 µM | SF-295 > 100 µM | NCI-H23 > 100 µM | SR > 100 µM | NCI-H522 > 100 µM | HOP-62 > 100 µM | HL-60 > 100 µM | RPMI-8226 > 100 µM | NCI-H460 > 100 µM | LOX IMVI > 100 µM | SF-268 > 100 µM | MDA-MB-435 > 100 µM | IGROV-1 > 100 µM | HCT-116 > 100 µM | SK-MEL-2 > 100 µM | OVCAR-4 > 100 µM | UO-31 > 100 µM

Cc1c(N)c(C#N)c2n(C)c3ncccc3n2c1=O
inactive: SK-MEL-5 > 100 µM | SF-295 > 100 µM | HOP-92 > 100 µM | NCI-H23 > 100 µM | SR > 100 µM | NCI-H522 > 100 µM | HOP-62 > 100 µM | HL-60 > 100 µM | RPMI-8226 > 100 µM | NCI-H460 > 100 µM | LOX IMVI > 100 µM | SF-268 > 100 µM | HCT-116 > 100 µM | SK-MEL-2 > 100 µM | OVCAR-4 > 100 µM | UO-31 > 100 µM

[O-][n+]1c2ccccc2[n+]([O-])c2ccccc21
inactive: SK-MEL-5 37.5 µM | PC-3 > 100 µM | SF-295 > 100 µM | NCI-H23 24 µM | SR 13 µM | NCI-H522 > 100 µM | HOP-62 > 100 µM | HL-60 11.5 µM | RPMI-8226 16.8 µM | NCI-H460 30.1 µM | LOX IMVI > 100 µM | SF-268 > 100 µM | MDA-MB-435 > 100 µM | IGROV-1 46.5 µM | HCT-116 > 100 µM | SK-MEL-2 > 100 µM | OVCAR-4 > 100 µM | UO-31 > 100 µM

CN(C(=O)C12C3C4C1C1C2C3C41I)C(C)(C)C (stereo unspecified)
inactive: SK-MEL-5 > 63.1 µM | SF-295 > 100 µM | NCI-H23 > 96.6 µM | SR > 29.4 µM | NCI-H522 48 µM | HOP-62 > 100 µM | HL-60 33 µM | RPMI-8226 > 100 µM | NCI-H460 > 100 µM | LOX IMVI > 100 µM | SF-268 > 100 µM | IGROV-1 > 90.8 µM | HCT-116 70.1 µM | SK-MEL-2 > 100 µM | OVCAR-4 > 100 µM | UO-31 > 67.1 µM

CCOC(=O)C1(C(=O)OCC)C(C(C)(C)C)=C(C)c2ccccc21
inactive: SK-MEL-5 9.59 µM | SF-295 11.7 µM | HOP-92 3.4 µM | NCI-H23 10.2 µM | SR 39.1 µM | NCI-H522 10.1 µM | HOP-62 20.3 µM | HL-60 9.93 µM | RPMI-8226 7.89 µM | NCI-H460 11.9 µM | LOX IMVI 12.3 µM | SF-268 16.8 µM | IGROV-1 14.5 µM | HCT-116 6.75 µM | SK-MEL-2 18.5 µM | OVCAR-4 14.9 µM | UO-31 15.4 µM

COc1cc(Cl)cc(N(O)C(C)=O)c1OCc1ccccc1
inactive: SK-MEL-5 > 100 µM | SF-295 66.2 µM | HOP-92 > 100 µM | NCI-H23 > 100 µM | SR 44.3 µM | NCI-H522 62.1 µM | HOP-62 65.6 µM | HL-60 40.7 µM | RPMI-8226 96.6 µM | NCI-H460 48.1 µM | LOX IMVI 77.6 µM | SF-268 44.8 µM | IGROV-1 > 100 µM | HCT-116 75.2 µM | OVCAR-4 > 100 µM | UO-31 51.8 µM

COc1ccc(NC(=O)CC/C(CC(=O)C(C)(C)C)=N\NC(=O)C(=O)NN)cc1
inactive: SK-MEL-5 > 100 µM | SF-295 > 100 µM | HOP-92 56.5 µM | NCI-H23 > 100 µM | SR > 100 µM | NCI-H522 44.2 µM | HOP-62 > 100 µM | HL-60 > 100 µM | RPMI-8226 > 100 µM | NCI-H460 > 100 µM | LOX IMVI > 100 µM | SF-268 > 100 µM | IGROV-1 > 100 µM | HCT-116 > 100 µM | SK-MEL-2 > 100 µM | OVCAR-4 > 100 µM | UO-31 > 100 µM

C#C[C@]1(O)CC[C@H]2[C@@H]3CCc4cc(O)ccc4[C@H]3CC[C@@]21C [ETHINYL ESTRADIOL]
inactive: SK-MEL-5 11.1 µM | SF-295 19 µM | HOP-92 22.9 µM | NCI-H23 23.7 µM | SR 16.7 µM | NCI-H522 10.9 µM | HL-60 21.7 µM | NCI-H460 21.7 µM | LOX IMVI 25.2 µM | SF-268 44.1 µM | IGROV-1 55.5 µM | HCT-116 23 µM | SK-MEL-2 24.5 µM | UO-31 > 10 µM
